Reference: patent US20040059140A1, “14(15)-unsaturated 15- and/or 16-substituted androgens with mixed androgen-progrestational profile” (priority 2000, published 2004)

What was measured:
[1] = biological target: T1, human androgen receptor (hAR) (Homo sapiens, UniProt P10275); assay: Androgenic activity (transactivation in CHO cells transfected with hAR, MMTV-luciferase, compared with 5α-dihydrotestosterone); type: cell-based; design: key: (−) very weak activity found; (+) activity found; (++) high activity; (+++) excellent activity; details: rated by scheme
T1 construct: expressed in transfected cells; host or cells: CHO (Chinese hamster ovary) cells
T1 sequence (P10275 1-920): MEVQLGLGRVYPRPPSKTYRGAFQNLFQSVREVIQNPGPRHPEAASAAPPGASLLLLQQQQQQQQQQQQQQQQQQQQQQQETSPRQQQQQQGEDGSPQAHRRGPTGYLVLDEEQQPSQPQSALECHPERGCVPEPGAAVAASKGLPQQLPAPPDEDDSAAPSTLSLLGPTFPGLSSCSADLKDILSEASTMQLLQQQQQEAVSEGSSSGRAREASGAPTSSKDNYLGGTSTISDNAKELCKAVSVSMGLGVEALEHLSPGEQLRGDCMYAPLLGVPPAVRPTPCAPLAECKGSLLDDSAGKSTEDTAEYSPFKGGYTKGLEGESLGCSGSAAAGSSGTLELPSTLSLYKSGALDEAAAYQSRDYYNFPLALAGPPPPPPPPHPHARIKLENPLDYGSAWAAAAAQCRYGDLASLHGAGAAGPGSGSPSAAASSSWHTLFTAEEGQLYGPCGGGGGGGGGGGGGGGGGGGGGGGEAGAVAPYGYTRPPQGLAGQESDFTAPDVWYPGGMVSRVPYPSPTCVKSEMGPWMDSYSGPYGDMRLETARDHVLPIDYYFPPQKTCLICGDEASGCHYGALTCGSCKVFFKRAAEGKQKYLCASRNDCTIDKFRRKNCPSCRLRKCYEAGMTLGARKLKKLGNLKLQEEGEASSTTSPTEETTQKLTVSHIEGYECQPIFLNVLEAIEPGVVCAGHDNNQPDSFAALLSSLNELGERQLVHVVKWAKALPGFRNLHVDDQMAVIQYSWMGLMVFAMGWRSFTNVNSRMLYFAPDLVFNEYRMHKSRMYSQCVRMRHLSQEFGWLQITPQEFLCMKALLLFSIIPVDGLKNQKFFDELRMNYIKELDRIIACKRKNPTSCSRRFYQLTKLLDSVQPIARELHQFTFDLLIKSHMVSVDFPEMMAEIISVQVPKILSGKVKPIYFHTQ
Source text: Androgenic activity can be measured in various ways. Thus, the potency of androgens can be determined in vitro using the cytoplasmic androgen receptor from human breast tumor cells (MCF-7 cell line); see Bergink, E. W. et al, Comparison of the receptor binding properties of nandrolone and testosterone under in vitro and in vivo conditions, J. Steroid Biochem. 22, 831-836 (1985). […] The transactivative androgen activity of the compounds of the invention can be measured, e.g. in Chinese hamster ovary cells (CHO) transfected with the human androgen receptor (hAR), in combination with a mouse mammary tumor virus (MMTV), and luciferase receptor gene (incubation time 16 h, temperature 37° C.) and compared with the activity of 5α-dihydrotestosterone [according to the procedure described by Schoonen, W. G. E. J. et al, Analyt. Biochem. 261, 222-224 (1998)]. For the in vivo potency determination of androgens the classical Hershberger test can be used. In this test the androgenic (increase in prostate weight) and anabolic activities [increase of the musculus levator ani (MLA)] of a compound are tested in immature castrated rats after daily administration for 7 days; see Hershberger, L. G. et al, Myotrophic activity of 19-Nortestosterone and other steroids determined by modified levator ani muscle method, Proceedings of the society for experimental biology and medicine 83, 175-180 (1953). Additionally, the effect of an androgenic compound on LH suppression can be tested in mature castrated rats according to Kumar, N. et al, The biological activity of 7alpha-methyl-19-nortestosteione is not amplified in male reproductive tract as is that of testosterone, Endocrinology 130, 3677-3683 (1992).
(§1) The compounds according to the invention were tested for androgenic activity and for progestational activity (the procedures for which have been described above) and rated according to the following scheme: […]

[2] = biological target: T2, human progesterone receptor B (hPRB) (Homo sapiens, UniProt P06401); assay: Progestational activity (transactivation in CHO cells transfected with hPRB, MMTV-luciferase, compared with (16α)-16-ethyl-21-hydroxy-19-norpregn-4-ene-3,20-dione); type: cell-based; design: key: (−) very weak activity found; (+) activity found; (++) high activity; (+++) excellent activity; details: rated by scheme
T2 construct: expressed in transfected cells; host or cells: CHO (Chinese hamster ovary) cells
T2 sequence (P06401 1-933): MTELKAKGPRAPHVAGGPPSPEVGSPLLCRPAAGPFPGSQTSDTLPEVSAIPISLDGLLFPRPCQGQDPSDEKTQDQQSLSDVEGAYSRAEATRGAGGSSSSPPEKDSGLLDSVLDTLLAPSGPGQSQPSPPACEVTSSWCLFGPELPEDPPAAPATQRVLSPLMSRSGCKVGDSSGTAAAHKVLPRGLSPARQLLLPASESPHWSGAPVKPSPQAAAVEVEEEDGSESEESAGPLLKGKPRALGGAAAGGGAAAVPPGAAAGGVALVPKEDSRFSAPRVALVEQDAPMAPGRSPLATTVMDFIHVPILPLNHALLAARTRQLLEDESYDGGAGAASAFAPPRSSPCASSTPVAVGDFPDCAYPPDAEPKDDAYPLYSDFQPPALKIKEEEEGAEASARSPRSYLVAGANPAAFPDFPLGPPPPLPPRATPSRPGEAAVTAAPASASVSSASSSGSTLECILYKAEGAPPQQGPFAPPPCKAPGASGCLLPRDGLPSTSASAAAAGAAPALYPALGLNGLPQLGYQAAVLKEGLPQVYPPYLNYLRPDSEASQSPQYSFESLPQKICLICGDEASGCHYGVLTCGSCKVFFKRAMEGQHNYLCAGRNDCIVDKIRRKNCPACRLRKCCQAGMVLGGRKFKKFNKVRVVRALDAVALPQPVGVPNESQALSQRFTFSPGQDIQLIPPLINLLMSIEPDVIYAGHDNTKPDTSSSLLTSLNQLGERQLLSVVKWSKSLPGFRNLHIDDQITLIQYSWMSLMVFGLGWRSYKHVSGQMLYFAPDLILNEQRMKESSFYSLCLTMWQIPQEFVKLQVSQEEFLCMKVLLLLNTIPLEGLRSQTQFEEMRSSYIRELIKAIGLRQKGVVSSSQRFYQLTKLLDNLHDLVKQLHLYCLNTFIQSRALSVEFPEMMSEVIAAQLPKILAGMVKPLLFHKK
Method: The transactivative progestagenic activity of the compounds of the invention can be measured, e.g. in Chinese hamster ovary cells (CHO) transfected with the human progesterone receptor B (hPRB), in combination with a mouse mammary tumor virus (MMTV), and luciferase receptor gene (incubation time 16 h, temperature 37° C.) and compared with the activity of (16α)-16-ethyl-21-hydroxy-19-norpregn-4-ene-3,20-dione [according to the procedure described by Schoonen, W. G. E. J. et al, Analyt. Biochem. 261, 222-224 (1998)].
as §1

Row | Structure (SMILES) | Androgenic activity [1] | Progestational activity [2] | melting point [°C]
1 | CC[C@]12CC[C@H]3[C@H](C1=C(C)C[C@@H]2O)[C@H](C)CC1=CC(=O)CC[C@@H]13 [Example 5, (7α,17β)-13-Ethyl-17-hydroxy-7,15-dimethylgona-4,14-dien-3-one] | ++ | + | 
2 | CC[C@@H]1CC2=C(CC[C@@H](O)C2)[C@H]2CC[C@@]3(C)C(=C(C)C[C@@H]3O)[C@H]12 [Example 8b, (3α,7α,17β)-7-ethyl-15-methylestra-5(10),14-diene-3,17-diol] | Prodrug | Prodrug | 
3 | C=C[C@@H]1CC2=CC(=O)CC[C@@H]2[C@H]2CC[C@@]3(C)C(=C[C@@H](C)[C@@H]3O)[C@@H]21 [Example 7c, (7α,16α,17β)-17-Hydroxy-16-methyl-7-vinylestra-4,14-dien-3-one] | ++ | + | 
4 | C[C@@H]1CC2=CC(=O)CC[C@@H]2[C@H]2CC[C@@]3(C)C(=CC[C@@H]3O)[C@@H]21 [Reference compound (Segaloff comp.*), (7α,17β)-7-methyl-17-hydroxyestra-4,14-dien-3-one, reference compound] | +++ | − | 
5 | C[C@@H]1C=C2[C@@H]3CCC4=CC(=O)CC[C@@H]4[C@H]3CC[C@]2(C)[C@H]1O [Example 6a, (16α,17β)-17-Hydroxy-16-methylestra-4,14-dien-3-one] | + | + | 
6 | CC[C@@H]1CC2=CC(=O)CC[C@@H]2[C@H]2CC[C@@]3(C)C(=C(C)C[C@@H]3O)[C@H]12 [Example 3, (7α,17β)-7-Ethyl-17-hydroxy-15-methylestra-4,14-dien-3-one] | ++ | + | 
7 | C[C@@H]1C=C2[C@H]3[C@H](CC[C@]2(C)[C@H]1O)[C@H]1CCC(=O)C=C1C[C@H]3C [Example 7a, (7α,16α,17β)-17-Hydroxy-7,16-dimethylestra-4,14-dien-3-one] | ++ | + | 
8 | CC[C@@H]1CC2=CC(=O)CC[C@@H]2[C@H]2CC[C@@]3(C)C(=C[C@@H](C)[C@@H]3O)[C@H]12 [Example 7b, (7α,16α,17β)-17-Hydroxy-7-ethyl-16-metliylestra-4,14-dien-3-one] | ++ | + | 
9 | CC[C@@H]1CC2=C(CC[C@H](O)C2)[C@H]2CC[C@@]3(C)C(=C(C)C[C@@H]3O)[C@H]12 [Example 8c, (3β,7α,17β)-7-ethyl-15-methylestra-5 (10),14-diene-3,17-diol] | Prodrug | Prodrug | 
10 | CCC1=C2[C@H]3[C@H](CC[C@]2(C)[C@@H](O)C1)[C@H]1CCC(=O)C=C1C[C@H]3C [Example 2, (7α,17β)-15-Ethyl-17-hydroxy-7-methylestra-4,14-dien-3-one] | + | ++ | 
11 | CC[C@@H]1CC2=C(CCC(=O)C2)[C@H]2CC[C@@]3(C)C(=C(C)C[C@@H]3O)[C@H]12 [Example 8a, (7α,17β)-7-Ethyl-17-hydroxy-15-methylestra-5(10),14-dien-3-one] | Prodrug | Prodrug | 
12 | CCC1=C2[C@@H]3[C@H](CC)CC4=CC(=O)CC[C@@H]4[C@H]3CC[C@]2(C)[C@@H](O)C1 [Example 4, (7α,17β)-7,15-Diethyl-17-hydroxyestra-4,14-dien-3-one] | + | + | 
13 | CC1=C2[C@H]3[C@H](CC[C@]2(C)[C@@H](O)C1)[C@H]1CCC(=O)C=C1C[C@H]3C [Example 1, (7α,17β)-17-Hydroxy-7,15-dimethylestra-4,14-dien-3-one] | ++ | ++ | 164 to 167
14 | C[C@H]1C=C2[C@@H]3CCC4=CC(=O)CC[C@@H]4[C@H]3CC[C@]2(C)[C@H]1O [Example 6b, (16β,17β)-17-hydroxy-16-methylestra-4,14-dien-3-one] | ++ | + | 
